Literature values, collected in patent US7604671B2, “Perfumery for improved cold throw and burn in candle systems” (Givaudan Fragrances Corporation, priority 2004, dated 2009).

Settings: Randebrock 1986

CCCCCCCCCCC=O [1-undecanal]
experimental value for odor detection threshold in air: 0.00054 mg/m^3
